Reference: PubChem BioAssay AID1919005 (Molecular Pharmacology Branch, DTP, NCI, 2023)
Values belong to the molecule of their own block, whether it stands above or below them.

Test system: 855422-203-R-J1-PDC complex spheroid growth
Test: Anticancer human tumor 855422-203-R-J1-PDC patient-derived bladder carcinoma cell line growth inhibition [AhR]
Details: for IC50: curve of first compound; for viability, T/C: stronger effect = lower value
Method in brief: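 Agents were dosed in half-log steps down from roughly clinical Cmax, or from 10 microM where Cmax was unknown, alone and with AhR antagonists. Read-out: percent test/control growth of tumor spheroids containing HUVEC and MSC stromal cells.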

[1] = second compound 0.1 µM, first compound 0.000949 µM
[2] = second compound 0.1 µM, first compound 0.003 µM
[3] = second compound 0.1 µM, first compound 0.00949 µM
[4] = second compound 0.1 µM, first compound 0.03 µM
[5] = second compound 0.1 µM, first compound 0.0949 µM
[6] = second compound 0.1 µM, first compound 0.3 µM
[7] = second compound 0.316 µM, first compound 0.000949 µM
[8] = second compound 0.316 µM, first compound 0.003 µM
[9] = second compound 0.316 µM, first compound 0.00949 µM
[10] = second compound 0.316 µM, first compound 0.03 µM
[11] = second compound 0.316 µM, first compound 0.0949 µM
[12] = second compound 0.316 µM, first compound 0.3 µM
[13] = second compound 1 µM, first compound 0.000949 µM
[14] = second compound 1 µM, first compound 0.003 µM
[15] = second compound 1 µM, first compound 0.00949 µM
[16] = second compound 1 µM, first compound 0.03 µM
[17] = second compound 1 µM, first compound 0.0949 µM
[18] = second compound 1 µM, first compound 0.3 µM
[19] = second compound 3.16 µM, first compound 0.000949 µM
[20] = second compound 3.16 µM, first compound 0.003 µM
[21] = second compound 3.16 µM, first compound 0.00949 µM
[22] = second compound 3.16 µM, first compound 0.03 µM
[23] = second compound 3.16 µM, first compound 0.0949 µM
[24] = second compound 3.16 µM, first compound 0.3 µM
[25] = second compound 10 µM, first compound 0.000949 µM
[26] = second compound 10 µM, first compound 0.003 µM
[27] = second compound 10 µM, first compound 0.00949 µM
[28] = second compound 10 µM, first compound 0.03 µM
[29] = second compound 10 µM, first compound 0.0949 µM
[30] = second compound 10 µM, first compound 0.3 µM
[31] = second compound 0.1 µM, first compound 0.0316 µM
[32] = second compound 0.1 µM, first compound 0.1 µM
[33] = second compound 0.316 µM, first compound 0.0316 µM
[34] = second compound 0.316 µM, first compound 0.1 µM
[35] = second compound 1 µM, first compound 0.0316 µM
[36] = second compound 1 µM, first compound 0.1 µM
[37] = second compound 3.16 µM, first compound 0.0316 µM
[38] = second compound 3.16 µM, first compound 0.1 µM
[39] = second compound 10 µM, first compound 0.0316 µM
[40] = second compound 10 µM, first compound 0.1 µM
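Further: spheroids exposed to agents for seven days before readout.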
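Wherever viability, T/C is given: percent of DMSO vehicle control luminescence viability.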

SMILES: CC(C)CC(NC(=O)C(Cc1ccccc1)NC(=O)c1cnccn1)B(O)O (stereo not given) + Cc1cncc(-c2nc(NCCc3c[nH]c4ccccc34)c3ncn(C(C)C)c3n2)c1
IC50 (second compound 0.1 µM): 2.14 nM
IC50 (second compound 0.316 µM): 2.02 nM
IC50 (second compound 1 µM): 1.68 nM
IC50 (second compound 3.16 µM): 1.29 nM
IC50 (second compound 10 µM): < 0.949 nM
viability, T/C [1]: 93%
viability, T/C [2]: 32.3%
viability, T/C [3]: 1.54%
viability, T/C [4]: 0.03%
viability, T/C [5]: 0.02%
viability, T/C [6]: 0.1%
viability, T/C [7]: 103%
viability, T/C [8]: 22.5%
viability, T/C [9]: 2.79%
viability, T/C [10]: 0.01%
viability, T/C [11]: 0.01%
viability, T/C [12]: 0.09%
viability, T/C [13]: 90.6%
viability, T/C [14]: 9.23%
viability, T/C [15]: 1.41%
viability, T/C [16]: 0.02%
viability, T/C [17]: 0.03%
viability, T/C [18]: 1.34%
viability, T/C [19]: 66.5%
viability, T/C [20]: 4.56%
viability, T/C [21]: 0.97%
viability, T/C [22]: 2.11%
viability, T/C [23]: 0.02%
viability, T/C [24]: 0.68%
viability, T/C [25]: 4.11%
viability, T/C [26]: 0.69%
viability, T/C [27]: 0.08%
viability, T/C [28]: 1.49%
viability, T/C [29]: 0.1%
viability, T/C [30]: 0.73%

SMILES: O=C(C=Cn1cnc(-c2cc(C(F)(F)F)cc(C(F)(F)F)c2)n1)NNc1cnccn1 + CC(CO)NC(=O)c1cc(-c2ccc(Cl)cc2)nn(-c2cnn(C)c2)c1=O
IC50 (second compound 0.1 µM): 409 nM
IC50 (second compound 0.316 µM): 279 nM
IC50 (second compound 1 µM): 326 nM
IC50 (second compound 3.16 µM): 274 nM
IC50 (second compound 10 µM): 260 nM
viability, T/C [3]: 106%
viability, T/C [4]: 124%
viability, T/C [5]: 141%
viability, T/C [6]: 55.2%
viability, T/C (second compound 0.1 µM, first compound 0.949 µM): 40.1%
viability, T/C (second compound 0.1 µM, first compound 3 µM): 32.1%
viability, T/C [9]: 112%
viability, T/C [10]: 125%
viability, T/C [11]: 149%
viability, T/C [12]: 44.6%
viability, T/C (second compound 0.316 µM, first compound 0.949 µM): 36.8%
viability, T/C (second compound 0.316 µM, first compound 3 µM): 33%
viability, T/C [15]: 121%
viability, T/C [16]: 136%
viability, T/C [17]: 159%
viability, T/C [18]: 51.1%
viability, T/C (second compound 1 µM, first compound 0.949 µM): 37.8%
viability, T/C (second compound 1 µM, first compound 3 µM): 31.1%
viability, T/C [21]: 108%
viability, T/C [22]: 123%
viability, T/C [23]: 152%
viability, T/C [24]: 43.4%
viability, T/C (second compound 3.16 µM, first compound 0.949 µM): 41.1%
viability, T/C (second compound 3.16 µM, first compound 3 µM): 28.6%
viability, T/C [27]: 100%
viability, T/C [28]: 134%
viability, T/C [29]: 144%
viability, T/C [30]: 39.2%
viability, T/C (second compound 10 µM, first compound 0.949 µM): 33.6%
viability, T/C (second compound 10 µM, first compound 3 µM): 31.1%

Continued, in another order:

IC50 (second compound 0.1 µM): > 100 nM
IC50 (second compound 0.316 µM): > 100 nM
IC50 (second compound 1 µM): > 100 nM
IC50 (second compound 3.16 µM): > 100 nM
IC50 (second compound 10 µM): > 100 nM
SMILES: Cn1ncnc1C1c2n[nH]c(=O)c3cc(F)cc(c23)NC1c1ccc(F)cc1 (stereo not given) + CC(CO)NC(=O)c1cc(-c2ccc(Cl)cc2)nn(-c2cnn(C)c2)c1=O
viability, T/C (second compound 0.1 µM, first compound 0.000316 µM): 93.4%
viability, T/C (second compound 0.1 µM, first compound 0.001 µM): 96.2%
viability, T/C (second compound 0.1 µM, first compound 0.00316 µM): 99.3%
viability, T/C (second compound 0.1 µM, first compound 0.01 µM): 92.4%
viability, T/C [31]: 105%
viability, T/C [32]: 84.9%
viability, T/C (second compound 0.316 µM, first compound 0.000316 µM): 96.4%
viability, T/C (second compound 0.316 µM, first compound 0.001 µM): 104%
viability, T/C (second compound 0.316 µM, first compound 0.00316 µM): 98.6%
viability, T/C (second compound 0.316 µM, first compound 0.01 µM): 107%
viability, T/C [33]: 100%
viability, T/C [34]: 89.3%
viability, T/C (second compound 1 µM, first compound 0.000316 µM): 109%
viability, T/C (second compound 1 µM, first compound 0.001 µM): 105%
viability, T/C (second compound 1 µM, first compound 0.00316 µM): 96.2%
viability, T/C (second compound 1 µM, first compound 0.01 µM): 109%
viability, T/C [35]: 99%
viability, T/C [36]: 107%
viability, T/C (second compound 3.16 µM, first compound 0.000316 µM): 101%
viability, T/C (second compound 3.16 µM, first compound 0.001 µM): 107%
viability, T/C (second compound 3.16 µM, first compound 0.00316 µM): 102%
viability, T/C (second compound 3.16 µM, first compound 0.01 µM): 103%
viability, T/C [37]: 105%
viability, T/C [38]: 110%
viability, T/C (second compound 10 µM, first compound 0.000316 µM): 105%
viability, T/C (second compound 10 µM, first compound 0.001 µM): 102%
viability, T/C (second compound 10 µM, first compound 0.00316 µM): 95.4%
viability, T/C (second compound 10 µM, first compound 0.01 µM): 103%
viability, T/C [39]: 106%
viability, T/C [40]: 94%

IC50 (second compound 0.1 µM): > 300 nM
IC50 (second compound 0.316 µM): > 300 nM
IC50 (second compound 1 µM): > 300 nM
IC50 (second compound 3.16 µM): 1.28 nM
IC50 (second compound 10 µM): < 0.949 nM
SMILES: Nc1ncn(C2CC(O)C(CO)S2)c(=O)n1 (stereo not given) + Cc1cncc(-c2nc(NCCc3c[nH]c4ccccc34)c3ncn(C(C)C)c3n2)c1
viability, T/C [1]: 92.3%
viability, T/C [2]: 101%
viability, T/C [3]: 92.9%
viability, T/C [4]: 90.4%
viability, T/C [5]: 84.7%
viability, T/C [6]: 72.2%
viability, T/C [7]: 90.1%
viability, T/C [8]: 83.8%
viability, T/C [9]: 77.4%
viability, T/C [10]: 85%
viability, T/C [11]: 78.2%
viability, T/C [12]: 69.8%
viability, T/C [13]: 74.1%
viability, T/C [14]: 88.2%
viability, T/C [15]: 77.3%
viability, T/C [16]: 73.6%
viability, T/C [17]: 79.1%
viability, T/C [18]: 77.1%
viability, T/C [19]: 49.1%
viability, T/C [20]: 51.8%
viability, T/C [21]: 41.9%
viability, T/C [22]: 25.1%
viability, T/C [23]: 42%
viability, T/C [24]: 37.5%
viability, T/C [25]: 28.3%
viability, T/C [26]: 26.9%
viability, T/C [27]: 19.7%
viability, T/C [28]: 15.5%
viability, T/C [29]: 22.8%
viability, T/C [30]: 24.3%

IC50 (second compound 0.1 µM): > 10000 nM
IC50 (second compound 0.316 µM): > 10000 nM
IC50 (second compound 1 µM): > 10000 nM
IC50 (second compound 3.16 µM): > 10000 nM
IC50 (second compound 10 µM): > 10000 nM
SMILES: CC1COCCN1c1cc(C2(S(C)(=N)=O)CC2)nc(-c2ccnc3[nH]ccc23)n1 (stereo not given) + CC(CO)NC(=O)c1cc(-c2ccc(Cl)cc2)nn(-c2cnn(C)c2)c1=O
viability, T/C [31]: 90.6%
viability, T/C [32]: 88.8%
viability, T/C (second compound 0.1 µM, first compound 0.316 µM): 92.3%
viability, T/C (second compound 0.1 µM, first compound 1 µM): 92.9%
viability, T/C (second compound 0.1 µM, first compound 3.16 µM): 134%
viability, T/C (second compound 0.1 µM, first compound 10 µM): 68.3%
viability, T/C [33]: 92.2%
viability, T/C [34]: 88.2%
viability, T/C (second compound 0.316 µM, first compound 0.316 µM): 95.2%
viability, T/C (second compound 0.316 µM, first compound 1 µM): 112%
viability, T/C (second compound 0.316 µM, first compound 3.16 µM): 136%
viability, T/C (second compound 0.316 µM, first compound 10 µM): 75.4%
viability, T/C [35]: 108%
viability, T/C [36]: 100%
viability, T/C (second compound 1 µM, first compound 0.316 µM): 108%
viability, T/C (second compound 1 µM, first compound 1 µM): 111%
viability, T/C (second compound 1 µM, first compound 3.16 µM): 123%
viability, T/C (second compound 1 µM, first compound 10 µM): 60.8%
viability, T/C [37]: 93.9%
viability, T/C [38]: 98.7%
viability, T/C (second compound 3.16 µM, first compound 0.316 µM): 107%
viability, T/C (second compound 3.16 µM, first compound 1 µM): 110%
viability, T/C (second compound 3.16 µM, first compound 3.16 µM): 123%
viability, T/C (second compound 3.16 µM, first compound 10 µM): 58.9%
viability, T/C [39]: 98.6%
viability, T/C [40]: 94.9%
viability, T/C (second compound 10 µM, first compound 0.316 µM): 81%
viability, T/C (second compound 10 µM, first compound 1 µM): 95.9%
viability, T/C (second compound 10 µM, first compound 3.16 µM): 104%
viability, T/C (second compound 10 µM, first compound 10 µM): 75.2%
